Data taken from the supplement of paper PMC4862054.

Experiments:
Conditions in all cases: incubation time: 72 h
[1] = system: SK-BR-3; assay: normalised response (% of control), CellTiter-Glo; higher = more viable cells (100 = DMSO, 0 = benzethonium chloride kill control)
Description: (§1)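 DSRT, 72 h incubation, CellTox Green / CellTiter-Glo readout. Signal is normalised to DMSO and benzethonium chloride controls. Value is the normalised response at the highest dose.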

[2] = system: MFM-223; assay: as above
Description: as §1

[3] = system: MCF-10A; assay: as above
Description: as §1

[4] = system: CAL-85-1; assay: as above
Description: as §1

[5] = system: DU-4475; assay: as above
Description: as §1

[6] = system: MDA-MB-453; assay: as above
Description: as §1

[7] = system: HCC1599; assay: as above
Description: as §1

[8] = system: MDA-MB-231; assay: as above
Description: as §1

[9] = system: HDQ-P1; assay: as above
Description: as §1

[10] = system: HCC1937; assay: as above
Description: as §1

[11] = system: BT-549; assay: as above
Description: as §1

[12] = system: CAL-51; assay: as above
Description: as §1

[13] = system: CAL-148; assay: as above
Description: as §1

[14] = system: CAL-120; assay: as above
Description: as §1

[15] = system: MDA-MB-436; assay: as above
Description: as §1

[16] = system: Hs578T; assay: as above
Description: as §1

[17] = system: HCC1143; assay: as above
Description: as §1

[18] = system: BT-474; assay: as above
Description: as §1

[19] = system: MDA-MB-468; assay: as above
Description: as §1

[20] = system: MFM-223; assay: normalised response (% of control), CellTox Green; higher = less cell death (100 = DMSO, 0 = benzethonium chloride kill control)
Outline: (§2)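 Compound was dispensed into 384-well plates at 5 concentrations in 10-fold steps spanning a 10,000-fold range specific to that compound. Breast cancer cell lines were added as 20 µl suspension and left for 72 h before CellTox Green fluorescence (485/520 nm) and then CellTiter-Glo luminescence, read after 10 min at room temperature. Each reported value is the normalised signal at one concentration, with 0.1 % DMSO set at 100 and a positive kill control at 0 on each plate.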

[21] = system: MCF-10A; assay: as above
Outline: as §2

[22] = system: CAL-85-1; assay: as above
Outline: as §2

[23] = system: DU-4475; assay: as above
Outline: as §2

[24] = system: MDA-MB-453; assay: as above
Outline: as §2

[25] = system: HCC1599; assay: as above
Outline: as §2

[26] = system: MDA-MB-231; assay: as above
Outline: as §2

[27] = system: HDQ-P1; assay: as above
Outline: as §2

[28] = system: HCC1937; assay: as above
Outline: as §2

[29] = system: BT-549; assay: as above
Outline: as §2

[30] = system: CAL-51; assay: as above
Outline: as §2

[31] = system: CAL-148; assay: as above
Outline: as §2

[32] = system: CAL-120; assay: as above
Outline: as §2

[33] = system: MDA-MB-436; assay: as above
Outline: as §2

[34] = system: HCC1143; assay: as above
Outline: as §2

[35] = system: BT-474; assay: as above
Outline: as §2

[36] = system: MDA-MB-468; assay: as above
Outline: as §2

[37] = system: Hs578T; assay: as above
Outline: as §2

[38] = system: SK-BR-3; assay: normalised response (% of control), CellTiter-Glo; higher = more viable cells (100 = DMSO, 0 = benzethonium chloride kill control); remark: listed apart in the source
Outline: as §2

[39] = system: MFM-223; assay: as above; remark: listed apart in the source
Outline: as §2

[40] = system: MCF-10A; assay: as above; remark: listed apart in the source
Outline: as §2

[41] = system: CAL-85-1; assay: as above; remark: listed apart in the source
Outline: as §2

[42] = system: DU-4475; assay: as above; remark: listed apart in the source
Outline: as §2

[43] = system: MDA-MB-453; assay: as above; remark: listed apart in the source
Outline: as §2

[44] = system: HCC1599; assay: as above; remark: listed apart in the source
Outline: as §2

[45] = system: MDA-MB-231; assay: as above; remark: listed apart in the source
Outline: as §2

[46] = system: HDQ-P1; assay: as above; remark: listed apart in the source
Outline: as §2

[47] = system: HCC1937; assay: as above; remark: listed apart in the source
Outline: as §2

[48] = system: BT-549; assay: as above; remark: listed apart in the source
Outline: as §2

[49] = system: CAL-51; assay: as above; remark: listed apart in the source
Outline: as §2

[50] = system: CAL-148; assay: as above; remark: listed apart in the source
Outline: as §2

[51] = system: CAL-120; assay: as above; remark: listed apart in the source
Outline: as §2

[52] = system: MDA-MB-436; assay: as above; remark: listed apart in the source
Outline: as §2

[53] = system: Hs578T; assay: as above; remark: listed apart in the source
Outline: as §2

[54] = system: HCC1143; assay: as above; remark: listed apart in the source
Outline: as §2

[55] = system: BT-474; assay: as above; remark: listed apart in the source
Outline: as §2

[56] = system: MDA-MB-468; assay: as above; remark: listed apart in the source
Outline: as §2

Row | SMILES | normalised response [20] [%] | normalised response [21] [%] | normalised response [22] [%] | normalised response [23] [%] | normalised response [24] [%] | normalised response [25] [%] | normalised response [26] [%] | normalised response [27] [%] | normalised response [28] [%] | normalised response [29] [%] | normalised response [30] [%] | normalised response [31] [%] | normalised response [32] [%] | normalised response [33] [%] | normalised response [34] [%] | normalised response [35] [%] | normalised response [36] [%] | normalised response [37] [%] | normalised response [38] [%] | normalised response [39] [%] | other results
1 | CC(C)(C)Cn1c(N)nc2ccc(-c3[nH]c(C(C)(C)C)nc3-c3ccc(F)cc3)nc21 (10000 nM) | 86.6 | 89.3 | 41.5 | 95.7 | 93.9 | 85.6 | 47.1 | 100 | 92.4 | 90.9 | 104 | 98.9 | 93.6 | 71.1 | 87.1 | 89.8 | 107 | – | – | – | normalised response [1]: 62.7%; normalised response [2]: 63.7%; normalised response [3]: 43.6%; normalised response [4]: 64.9%; normalised response [5]: 99.4%; normalised response [6]: 77.3%; normalised response [7]: 78.1%; normalised response [8]: 67.2%; normalised response [9]: 70.7%; normalised response [10]: 65.3%; normalised response [11]: 76.4%; normalised response [12]: 104%; normalised response [13]: 94.7%; normalised response [14]: 89.3%; normalised response [15]: 82.1%; normalised response [16]: 94.1%; normalised response [17]: 86.1%; normalised response [18]: 66.4%; normalised response [19]: 37%
2 | Cc1c(C(=O)Nc2ccc(N3C[C@@H](C)O[C@@H](C)C3)nc2)cccc1-c1ccc(OC(F)(F)F)cc1 [Erismodegib] (10000 nM) | 105 | 101 | 85.3 | 108 | 63.9 | 118 | 107 | 111 | 122 | 130 | 99.8 | – | 101 | 79 | 109 | 93 | 171 | 80.5 | – | – | normalised response [1]: 81%; normalised response [2]: 80.8%; normalised response [3]: 92%; normalised response [4]: 91.8%; normalised response [5]: 99.6%; normalised response [6]: 75.5%; normalised response [7]: 91.1%; normalised response [8]: 79%; normalised response [9]: 85.3%; normalised response [10]: 90.2%; normalised response [11]: 81.8%; normalised response [12]: 102%; normalised response [13]: 100%; normalised response [14]: 97.6%; normalised response [15]: 78.6%; normalised response [16]: 94.8%; normalised response [17]: 89.4%; normalised response [18]: 73.5%; normalised response [19]: 74.7%
3 | C[C@@H](C(=O)O)c1ccc(-c2ccccc2)c(F)c1 [Tarenflurbil] (100 nM) | 103 | 61.1 | 101 | 98.1 | 100 | 99.3 | 96.1 | 93 | 100 | 98.8 | 92.8 | 102 | 103 | 72 | 98.1 | 93.2 | 101 | 89.7 | 91.6 | 96.2 | normalised response [40]: 91.7%; normalised response [41]: 95%; normalised response [42]: 101%; normalised response [43]: 101%; normalised response [44]: 106%; normalised response [45]: 97.3%; normalised response [46]: 95.2%; normalised response [47]: 91.2%; normalised response [48]: 97.3%; normalised response [49]: 91.1%; normalised response [50]: 90.3%; normalised response [51]: 98.3%; normalised response [52]: 97.9%; normalised response [53]: 102%; normalised response [54]: 94.8%; normalised response [55]: 101%; normalised response [56]: 96.4%
4 | Cn1nnc2c(C(N)=O)ncn2c1=O [Temozolomide] (100 nM) | 102 | 89.1 | 107 | 101 | 105 | 89.7 | 110 | 81.8 | 82.5 | 101 | 108 | 100 | 99.2 | 104 | 96.3 | 97.8 | 92.8 | 89.4 | 96.5 | 104 | normalised response [40]: 103%; normalised response [41]: 93.6%; normalised response [42]: 96.8%; normalised response [43]: 102%; normalised response [44]: 90.9%; normalised response [45]: 101%; normalised response [46]: 93.2%; normalised response [47]: 88.2%; normalised response [48]: 106%; normalised response [49]: 107%; normalised response [50]: 98.8%; normalised response [51]: 99.7%; normalised response [52]: 98.8%; normalised response [53]: 103%; normalised response [54]: 101%; normalised response [55]: 95.4%; normalised response [56]: 100%
5 | CCc1c(C(=O)C(N)=O)c2c(OCC(=O)O)cccc2n1Cc1ccccc1 [Varespladib] (100 nM) | 91.1 | 112 | 99.3 | 104 | 105 | 97 | 104 | 96 | 83.1 | 99.1 | 96.8 | 102 | 102 | 106 | 92.1 | 104 | 88.9 | 99.9 | 101 | 102 | normalised response [40]: 105%; normalised response [41]: 98.5%; normalised response [42]: 98.8%; normalised response [43]: 97%; normalised response [44]: 95.9%; normalised response [45]: 103%; normalised response [46]: 101%; normalised response [47]: 102%; normalised response [48]: 100%; normalised response [49]: 95.6%; normalised response [50]: 103%; normalised response [51]: 111%; normalised response [52]: 98.5%; normalised response [53]: 104%; normalised response [54]: 103%; normalised response [55]: 98%; normalised response [56]: 95.3%
